From patent US20230107941A1, “HEPATITIS B CAPSID ASSEMBLY MODULATORS” (Venatorx Pharmaceuticals, Inc., priority 2019, published 2023)

Key:
HBV = experiment: In vitro antiviral assay: anti-HBV replication in HepAD38 cells (extracellular HBV DNA by QPCR); type: cell-based, hepatitis B virus (genotype D, serotype ayw); settings: Hepatitis B virus, HePAD38, 168 h, 7 days incubation, extracellular HBV DNA by QPCR, read-out: Anti-HBV EC50
Procedure, shortened: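 Read-out is extracellular HBV DNA (copies/mL, QPCR standard curve) after 7-day exposure of tet-free HepAD38 cells to 10-fold dilutions from 1 μM down to 10 pM. Values normalised to DMSO vehicle; EC50 from 4-parameter nonlinear regression, with entecavir validating each run.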

[1] = In vitro cytotoxicity assay (MTT cell viability) in HepG2 cells; type: cell-based, human; settings: human
Procedure, shortened: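 CC50 was derived by 4-parameter fit of viability relative to vehicle controls, measured as MTT formazan absorbance at 492 nm after 3–4 h of reagent and DMSO solubilization. Before that, HepG2 cells seeded overnight at 20,000/well were incubated 7 days at 37°C with compound from 30 μM down to 1.0 nM in half-log steps.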

## Cc1cc(NC(=O)c2c(C)c(C(=O)C(=O)NC3(CO)CCN(C(=O)c4ccnn4C)CC3)n(C)c2C)ccc1F [Example 76, N-(4-fluoro-3-methylphenyl)-5-(2-((4-(hydroxymethyl)-1-(1-methyl-1H-pyrazole-5-carbonyl)piperidin-4-yl)amino)-2-oxoacetyl)-1,2,4-trimethyl-1H-pyrrole-3-carboxamide]
HBV
  EC50: < 0.05 µM
[1]
  CC50 at 7 days: > 30 µM

## Cc1cc(NC(=O)c2c(C)c(C(=O)C(=O)N[C@H]3CC[C@@H](O)CC3)n(C)c2C2CCCCC2)ccc1F [Example 119, 2-cyclohexyl-N-(4-fluoro-3-methylphenyl)-5-(2-(((1s,4s)-4-hydroxycyclohexyl)amino)-2-oxoacetyl)-1,4-dimethyl-1H-pyrrole-3-carboxamide]
HBV
  EC50: 0.5 to 1 µM
[1]
  CC50 at 7 days: 5 to 30 µM

## Cc1ccc(F)c(NC(=O)c2c(C)c(C(=O)C(=O)NC(C)(C)C)n(C)c2C)c1 [Example 68, 5-(2-(tert-butylamino)-2-oxoacetyl)-N-(2-fluoro-5-methylphenyl)-1,2,4-trimethyl-1H-pyrrole-3-carboxamide]
HBV
  EC50: < 0.05 µM
[1]
  CC50 at 7 days: > 30 µM

## Cc1cc(NC(=O)c2c(C)c(C(=O)C(=O)N[C@@H]3CC[C@@H](O)CC3(C)C)n(C)c2C)ccc1F (single isomer, unassigned) [Example 143]
HBV
  EC50: < 0.05 µM
[1]
  CC50 at 7 days: > 30 µM

## CC(=O)N1CC[C@@H](NC(=O)C(=O)c2c(C)c(C(=O)Nc3ccc(F)c(C)c3)c(C)n2C)[C@H](O)C1 [Example 167, 5-(2-(((3R,4R)-1-acetyl-3-hydroxypiperidin-4-yl)amino)-2-oxoacetyl)-N-(4-fluoro-3-methylphenyl)-1,2,4-trimethyl-1H-pyrrole-3-carboxamide]
HBV
  EC50: 0.5 to 1 µM
[1]
  CC50 at 7 days: > 30 µM

## Cc1cc(NC(=O)c2c(C)c(C(=O)C(=O)N[C@H]3CC[C@@H](O)CC3)n(C)c2-c2ccncc2)ccc1F [Example 163, N-(4-fluoro-3-methylphenyl)-5-(2-(((1s,4s)-4-hydroxycyclohexyl)amino)-2-oxoacetyl)-1,4-dimethyl-2-(pyridin-4-yl)-1H-pyrrole-3-carboxamide]
HBV
  EC50: > 1 µM
[1]
  CC50 at 7 days: > 30 µM

## Cc1cc(NC(=O)c2c(C)c(C(=O)C(=O)N[C@]3(C)C[C@H](O)C3)n(C)c2C2CC2)ccc1F [Example 128, 2-cyclopropyl-N-(4-fluoro-3-methylphenyl)-5-(2-(((1s,3s)-3-hydroxy-1-methylcyclobutyl)amino)-2-oxoacetyl)-1,4-dimethyl-1H-pyrrole-3-carboxamide]
HBV
  EC50: < 0.05 µM
[1]
  CC50 at 7 days: > 30 µM

## Cc1c(C(=O)Nc2ccc(F)c(C#N)c2)c(C)n(C)c1C(=O)C(=O)N[C@H]1CC[C@@H](O)CC1 [Example 17, N-(3-cyano-4-fluorophenyl)-5-(2-(((1s,4s)-4-hydroxycyclohexyl)amino)-2-oxoacetyl)-1,2,4-trimethyl-1H-pyrrole-3-carboxamide]
HBV
  EC50: < 0.05 µM
[1]
  CC50 at 7 days: > 30 µM

## Cc1c(C(=O)Nc2ccc(F)c(-c3nc[nH]n3)c2)c(C)n(C)c1C(=O)C(=O)NC(C)(C)C [Example 139, 5-(2-(tert-butylamino)-2-oxoacetyl)-N-(4-fluoro-3-(1H-1,2,4-triazol-3-yl)phenyl)-1,2,4-trimethyl-1H-pyrrole-3-carboxamide]
HBV
  EC50: > 1 µM
[1]
  CC50 at 7 days: > 30 µM

## Cc1cc(NC(=O)c2c(C)c(C(=O)C(=O)N[C@H]3CC[C@@H](S(C)(=O)=O)CC3)n(C)c2C(C)C)ccc1F [Example 110, N-(4-fluoro-3-methylphenyl)-2-isopropyl-1,4-dimethyl-5-(2-(((1s,4s)-4-(methylsulfonyl)cyclohexyl)amino)-2-oxoacetyl)-1H-pyrrole-3-carboxamide]
HBV
  EC50: 0.5 to 1 µM
[1]
  CC50 at 7 days: > 30 µM

## CCC1(NC(=O)C(=O)c2c(C)c(C(=O)Nc3ccc(F)c(C)c3)c(C)n2C)CCN(c2cccnn2)CC1 [Example 44, 5-(2-((4-ethyl-1-(pyridazin-3-yl)piperidin-4-yl)amino)-2-oxoacetyl)-N-(4-fluoro-3-methylphenyl)-1,2,4-trimethyl-1H-pyrrole-3-carboxamide]
HBV
  EC50: < 0.05 µM
[1]
  CC50 at 7 days: > 30 µM

## Cc1cc(NC(=O)c2c(C)c(C(=O)C(=O)N[C@]3(C)C[C@H](O)C3)n(C)c2-c2nccs2)ccc1F [Example 174, N-(4-fluoro-3-methylphenyl)-5-(2-(((1s,3s)-3-hydroxy-1-methylcyclobutyl)amino)-2-oxoacetyl)-1,4-dimethyl-2-(thiazol-2-yl)-1H-pyrrole-3-carboxamide]
HBV
  EC50: 0.5 to 1 µM
[1]
  CC50 at 7 days: > 30 µM

## Cc1cc(NC(=O)c2c(C)c(C(=O)C(=O)N[C@@H]3CC[C@H](O)C[C@@H]3F)n(C)c2C)ccc1F [Example 122, N-(4-fluoro-3-methylphenyl)-5-(2-(((1R,2S,4S)-2-fluoro-4-hydroxycyclohexyl)amino)-2-oxoacetyl)-1,2,4-trimethyl-1H-pyrrole-3-carboxamide]
HBV
  EC50: < 0.05 µM
[1]
  CC50 at 7 days: 5 to 30 µM

## Cc1c(C(=O)Nc2cc(Cl)cc(Cl)c2)c(C)n(C)c1C(=O)C(=O)N[C@H]1CC[C@@H](O)CC1 [Example 10, N-(3,5-dichlorophenyl)-5-(2-(((1s,4s)-4-hydroxycyclohexyl)amino)-2-oxoacetyl)-1,2,4-trimethyl-1H-pyrrole-3-carboxamide]
HBV
  EC50: < 0.05 µM
[1]
  CC50 at 7 days: 5 to 30 µM

## Cc1c(C(=O)Nc2ccc(F)c(C#N)c2)c(C)n(C)c1C(=O)C(=O)N[C@]1(C)CC[C@@H](O)CC1 [Example 16, N-(3-cyano-4-fluorophenyl)-5-(2-(((1r,4r)-4-hydroxy-1-methylcyclohexyl)amino)-2-oxoacetyl)-1,2,4-trimethyl-1H-pyrrole-3-carboxamide]
HBV
  EC50: < 0.05 µM
[1]
  CC50 at 7 days: > 30 µM

## Cc1cc(NC(=O)c2c(C)c(C(=O)C(=O)NC3(CO)CCN(C(=O)c4cnn(C)c4)CC3)n(C)c2C)ccc1F [Example 74, N-(4-fluoro-3-methylphenyl)-5-(2-((4-(hydroxymethyl)-1-(1-methyl-1H-pyrazole-4-carbonyl)piperidin-4-yl)amino)-2-oxoacetyl)-1,2,4-trimethyl-1H-pyrrole-3-carboxamide]
HBV
  EC50: < 0.05 µM
[1]
  CC50 at 7 days: > 30 µM

## Cc1cc(NC(=O)c2c(C)c(C(=O)C(=O)NCC(C)(C)O)n(C)c2C(C)C)ccc1F [Example 113, N-(4-fluoro-3-methylphenyl)-5-(2-((2-hydroxy-2-methylpropyl)amino)-2-oxoacetyl)-2-isopropyl-1,4-dimethyl-1H-pyrrole-3-carboxamide]
HBV
  EC50: 0.05 to 0.499 µM
[1]
  CC50 at 7 days: > 30 µM

## Cc1cc(NC(=O)c2c(C)c(C(=O)C(=O)N[C@@H]3CC[C@H](O)C[C@H]3F)n(C)c2C)ccc1F [Example 15, N-(4-fluoro-3-methylphenyl)-5-(2-(((1R,2R,4S)-2-fluoro-4-hydroxycyclohexyl)amino)-2-oxoacetyl)-1,2,4-trimethyl-1H-pyrrole-3-carboxamide]
HBV
  EC50: < 0.05 µM
[1]
  CC50 at 7 days: > 30 µM

## Cc1noc(C2(NC(=O)c3c(C)c(C(=O)C(=O)Nc4cccnc4)n(C)c3C)CC2)n1 [Example 30, 1,2,4-trimethyl-N-(1-(3-methyl-1,2,4-oxadiazol-5-yl)cyclopropyl)-5-(2-oxo-2-(pyridin-3-ylamino)acetyl)-1H-pyrrole-3-carboxamide]
HBV
  EC50: > 1 µM
[1]
  CC50 at 7 days: > 30 µM

## Cc1cc(NC(=O)c2c(C)c(C(=O)C(=O)N[C@]3(C)C[C@H](O)C3)n(C)c2CC2CC2)ccc1F [Example 123, 2-(cyclopropylmethyl)-N-(4-fluoro-3-methylphenyl)-5-(2-(((1s,3s)-3-hydroxy-1-methylcyclobutyl)amino)-2-oxoacetyl)-1,4-dimethyl-1H-pyrrole-3-carboxamide]
HBV
  EC50: < 0.05 µM
[1]
  CC50 at 7 days: > 30 µM

## Cc1cc(NC(=O)c2c(C)c(C(=O)C(=O)N[C@H]3CC[C@@H](S(C)(=O)=O)CC3)n(C)c2-c2ccncc2)ccc1F [Example 160, N-(4-fluoro-3-methylphenyl)-1,4-dimethyl-5-(2-(((1s,4s)-4-(methylsulfonyl)cyclohexyl)amino)-2-oxoacetyl)-2-(pyridin-4-yl)-1H-pyrrole-3-carboxamide]
HBV
  EC50: > 1 µM
[1]
  CC50 at 7 days: > 30 µM

## Cc1c(C(=O)Nc2ccc(F)c(C#N)c2)c(C)n(C)c1C(=O)C(=O)Nc1cccc(B(O)O)c1 [Example 141, (3-(2-(4-((3-cyano-4-fluorophenyl)carbamoyl)-1,3,5-trimethyl-1H-pyrrol-2-yl)-2-oxoacetamido)phenyl)boronic acid]
HBV
  EC50: 0.05 to 0.499 µM
[1]
  CC50 at 7 days: > 30 µM

## Cc1cc(NC(=O)c2c(C)c(C(=O)C(=O)NCC(C)(C)O)n(C)c2-c2ccsc2)ccc1F [Example 185, N-(4-fluoro-3-methylphenyl)-5-(2-((2-hydroxy-2-methylpropyl)amino)-2-oxoacetyl)-1,4-dimethyl-2-(thiophen-3-yl)-1H-pyrrole-3-carboxamide]
HBV
  EC50: 0.5 to 1 µM
[1]
  CC50 at 7 days: 5 to 30 µM

## CCc1c(C(=O)Nc2ccc(F)c(C)c2)c(C)c(C(=O)C(=O)NCC(C)(C)O)n1C [Example 105, 2-ethyl-N-(4-fluoro-3-methylphenyl)-5-(2-((2-hydroxy-2-methylpropyl)amino)-2-oxoacetyl)-1,4-dimethyl-1H-pyrrole-3-carboxamide]
HBV
  EC50: < 0.05 µM
[1]
  CC50 at 7 days: > 30 µM

## Cc1cc(NC(=O)c2c(C)c(C(=O)C(=O)N[C@H]3CC[C@@H](O)CC3)n(C)c2-c2ccccn2)ccc1F [Example 158, N-(4-fluoro-3-methylphenyl)-5-(2-(((1s,4s)-4-hydroxycyclohexyl)amino)-2-oxoacetyl)-1,4-dimethyl-2-(pyridin-2-yl)-1H-pyrrole-3-carboxamide]
HBV
  EC50: > 1 µM
[1]
  CC50 at 7 days: > 30 µM
